The results in this text go back to US20260240860A1, “COMPOSITION FOR REJUVENATION OF SENESCENT CELLS OR DELAY OR PREVENTION OF CELLULAR SENESCENCE” (LONO JAEYAK INC., priority 2022, published 2026).

The assay relates to senescent human skin fibroblasts collected from newborn skin. The assay is described as follows: Experiment to confirm cell division (Hoechst assay). Format: cell-based. The conditions noted are these: for cell division results when the named compound replaced KU60019 (ATM kinase inhibitor) or ABT263 (Bcl-2 inhibitor) in the combinations: FIGS. 8 to 10; for cell rejuvenation effect of the five-component combination with the named compound as ATM kinase inhibitor or Bcl-2 inhibitor: FIGS. 24 and 25, ATM kinase inhibitor+ROCK inhibitor+Bcl-2 inhibitor+SIRT1 activator+AMPK activator treated together. On the procedure: The human dermal fibroblasts used in the experiment were samples collected from newborn skin (PCS-201-010; ATCC), and the cells were cultured in a culture solution of DMEM [25 mM glucose, 10% FBS (S001-01; Welgene), 100 units/ml penicillin, 10 μg/ml streptomycin, and 25 ng/ml amphotericin B (LS203-01; Welgene)] under the conditions of 37° C. and 5% CO2.
After the 48th passage, ½ of the cells were cultured. When the population doubling time (DT) exceeded 14 days and the senescence-associated β-galactosidase (SA-β) ratio exceeded 95%, experiments were conducted by considering the cells as sufficiently aged.
The cell division ability of the senescent cells treated with the compounds in the above examples and comparative examples was investigated.
The cells to be used in the experiment were transplanted into a plate three days before the experiment. The cells treated with the compounds were stained with 10 μg/ml Hoechst 33342 for 30 minutes and washed twice with phosphate-buffered saline (PBS), and the amount of the cells was quantified using a plate reader (FLUOstar Omega) at wavelengths of ex/em: 355/460 nm.
FIGS. 1 to 10 show the experimental results for each example and comparative example in which human skin fibroblasts collected from newborn skin were used as senescent cells.
An additional experiment was conducted using the same method as Experimental Example 1, but with a greater variety of concentrations of the treated substances.

On to `CN(C)CC[C@H](CSc1ccccc1)Nc1ccc(S(=O)(=O)NC(=O)c2ccc(N3CCN(Cc4ccccc4-c4ccc(Cl)cc4)CC3)cc2)cc1[N+](=O)[O-]` [ABT737], for which the “cell division results when the named compound replaced KU60019 (ATM kinase inhibitor) or ABT263 (Bcl-2 inhibitor) in the combinations” value is “the results showed the same pattern”.

In the case of `CNC(=O)c1ccc(-c2cnc3cnc(-c4ccccc4)cn23)cc1` [AZ32], the “cell division results when the named compound replaced KU60019 (ATM kinase inhibitor) or ABT263 (Bcl-2 inhibitor) in the combinations” value is “the results showed the same pattern” and the “cell rejuvenation effect of the five-component combination with the named compound as ATM kinase inhibitor or Bcl-2 inhibitor” value is “excellent cell rejuvenation effect”. With `C/C1=C\CCC2=C[C@@H](OC2=O)c2c(C)coc2C1` [linderalactone], the “cell division results when the named compound replaced KU60019 (ATM kinase inhibitor) or ABT263 (Bcl-2 inhibitor) in the combinations” value is given as “the results showed the same pattern” and the “cell rejuvenation effect of the five-component combination with the named compound as ATM kinase inhibitor or Bcl-2 inhibitor” value is listed as “excellent cell rejuvenation effect”.
